Test results reported in patent publication EP1743628A1, “Cosmetic composition containing red algae extract comprising a combination of floridoside and isethionic acid” (Simer, priority 2005, dated 2007).

Tests used:
[1] = system: stratum corneum (SC) délipidisé; test: Water retention (water-holding capacity, WHC) of delipidised stratum corneum after immersion in aqueous test solutions; set-up: species or system porc; details: 8 h immersion, après 6 heures à 25°C et 40% RH
Method: On étudie l'hydratation du stratum corneum (SC) délipidisé et traité par différentes solutions aqueuses.
Le but de cette étude est de montrer si l'application cutanée d'une solution aqueuse d'extrait de mastocarpus (10% de matière sèche), de floridoside pur à 3,8%, d'acide iséthionique pur à 1,9%, d'un mélange de floridoside pur à 3,8% et d'acide iséthionique pur à 1,9%, modifie significativement l'état d'hydratation du SC délipidisé puis conservé dans une enceinte à 25°C et à 40 % d'humidité relative (RH).
Dans cette étude, des échantillons de SC, isolés de l'épiderme de morceaux d'oreilles de porc par un traitement à la trypsine (1% dans un tampon phosphate; pH=7,4) puis délipidisés par un solvant (acétone par exemple), ont été immergés pendant 8 heures dans une solution aqueuse d'extrait de mastocarpus 10%, de floridoside pur à 3,8%, d'acide iséthionique pur à 1,9%, d'un mélange de floridoside pur à 3,8% et d'acide iséthionique pur à 1,9%, (3 échantillons de SC par produits). Trois échantillons de SC délipidisé ont été traités par de l'eau ultra pure (contrôle, 18 MΩ), pendant 8 heures. Après traitement, ces échantillons ont été pesés puis placés dans une étuve maintenue à 25°C et à 40% RH. La masse des échantillons de SC traités par chacune des solutions a été déterminée après 1h; 2h; 3h; 4h; 5h et 6h de conservation à 25°C et à 40% RH. […]

[2] = system: transglutaminase kératinocytaire (TGk); test: Keratinocyte transglutaminase (TGk) activity in NHEK cultures (differentiation)
[3] = system: fibres musculaires en coculture avec des explants de moelle épinière; assay type: cell-based, cellules musculaires humaines; embryons de rat Wistar
[4] = acide rétinoïque, concentration not printed in this table (10^-7M per Tableau 4)

O=S(=O)(O)CCO [acide iséthionique]
état de déshydratation des échantillons de SC ([1]; acide iséthionique 1,9%, vs contrôle): moins déshydratés que les échantillons contrôles

CC1=C(/C=C/C(C)=C/C=C/C(C)=C/CO)C(C)(C)CCC1 [Rétinol]
% (activité TGk/µg de protéines, par rapport au témoin) ([2]; 10^-6 M): 72% | % témoin (activité TGk) ([2]; 10^-6 M): 54% | Activité TGk (cpm) ([2]; 10^-6 M): 465 cpm | activité/µg (activité TGk par rapport à la quantité de protéines) ([2]; 10^-6 M): 142 | réduction de l'activité TGk ([2]; 10^-6 M): 48%

CC1=C(/C=C/C(C)=C/C=C/C(C)=C/C(=O)O)C(C)(C)CCC1 [Acide rétinoïque]
% témoin (activité TGk) ([2]; 10^-7M): 52% | Activité TGk (cpm) ([2]; 10^-7M): 447 cpm | réduction de l'activité TGk ([2]; 10^-7M): 46% | % (activité TGk/µg de protéines, par rapport au témoin) [2, 4]: 67% | activité/µg (activité TGk par rapport à la quantité de protéines) [2, 4]: 131

[Ca+2].[Cl-].[Cl-] [Chlorure de calcium]
% (activité TGk/µg de protéines, par rapport au témoin) ([2]; 1,5 mM): 317% | % témoin (activité TGk) ([2]; 1,5 mM): 394% | activité/µg (activité TGk par rapport à la quantité de protéines) ([2]; 1,5 mM): 626 | Activité TGk (cpm) ([2]; 1,5mM, sans calcium dans le milieu): 3408 cpm | activité transglutaminase plus forte en milieu calcium qu'en milieu sans calcium ([2]; chlorure de calcium 1,5 mM): ~4 fois

CCCC(C)(COC(N)=O)COC(=O)NC(C)C (centres unmarked) [carisoprodol]
fréquence de contraction des 3 fibres musculaires sélectionnées ([3]; 10^-3 M (0,03%), après 1 minute et 2 heures d'incubation): a bloqué | activité contractile après recharge en glucose ([3]; 10^-3 M, 48 heures d'incubation, apport de glucose): n'a pas permis aux fibres musculaires de reprendre une activité contractile | pourcentage moyen de contraction des trois fibres (récupération) ([3]; carisoprodol 10^-3 M, après changement de milieu et 2 heures sans produit, relative to initial frequency): 111%

OCC(CO)O[C@H]1O[C@H](CO)[C@H](O)[C@H](O)[C@H]1O [floridoside, 2-O-glycérol-α-D-galactopyranoside]
état de déshydratation des échantillons de SC ([1]; floridoside 3,8%, vs eau): n'était pas significativement différent
